# Data as given in patent US9730445B2, “Herbicidal compositions comprising 4-amino-3-chloro-5-fluoro-6-(4-chloro-2-fluoro-3-methoxyphenyl) pyridine-2-carboxylic acid or a derivative thereof and fungicides” (DOW AGROSCIENCES LLC, priority 2013, dated 2017).
# How the values were obtained:
# [1] = tested on: CYPIR; assay: Postemergence foliar-applied weed control, direct-seeded rice (greenhouse); format: in vivo, Cyperus iria L. (rice flatsedge); conditions: 22 DAA, r22-23 ester 16/32 g ae/ha alone, r24-26 azoxystrobin 62.5/125/250 g ai/ha alone, r27-32 ester 16/32 at each of 62.5, 125, 250
# Method: (§1) Seeds or nutlets of the desired test plant species were planted in a soil matrix prepared by mixing aloam or sandy loam soil (e.g., 28.6 percent silt, 18.8 percent clay, and 52.6 percent sand, with a pH of about 5.8 and an organic matter content of about 1.8 percent) and calcareous grit in an 80 to 20 ratio. The soil matrix was contained in plastic pots with a volume of 1 quart and a surface area of 83.6 square centimeters (cm^2). […] The plants were grown for 8-22 days in a greenhouse with an approximate 14 hour (h) photoperiod which was maintained at about 29° C. during the day and 26° C. during the night. Nutrients (Peters Excel® 15-5-15 5-Ca 2-Mg and iron chelate) were applied in the irrigation solution as needed and water was added on a regular basis. Supplemental lighting was provided with overhead metal halide 1000-Watt lamps as necessary. The plants were employed for testing when they reached the first through fourth true leaf stage.
# (§2) Treatments consisted of the acid or esters of 4-amino-3-chloro-5-fluoro-6-(4-chloro-2-fluoro-3-methoxy-phenyl)pyridine-2-carboxylic acid (Compound A), each formulated as an SC (suspension concentrate), and various fungicidal components alone and in combination. Forms of compound A were applied on an acid equivalent basis.
# (§3) For treatments comprised of formulated compounds, measured amounts of compounds were placed individually in 25 mL glass vials and diluted in a volume of 1.25% volume per volume (v/v) Agri-Dex® crop oil concentrate to obtain 12× stock solutions. […] Application solutions were prepared by adding an appropriate amount of each stock solution (e.g., 1 mL) and diluted to the appropriate final concentrations with the addition of […] of an aqueous mixture of 1.25% (v/v) crop oil concentrate so that the final spray solutions contained 1.25+/−0.05% (v/v) crop oil concentrate.
# (§4) For treatments comprised of technical compounds, weighed amounts can be placed individually in 25 mL glass vials and dissolved in a volume of 97:3 volume per volume (v/v) acetone/dimethyl sulfoxide (DMSO) to obtain 12× stock solutions. […] When technical materials are used, the concentrated stock solutions can be added to the spray solutions so that the final acetone and DMSO concentrations of the application solutions are 16.2% and 0.5%, respectively.
# (§5) As required, additional water and/or 97:3 v/v acetone/DMSO was added to individual application solutions so that the final acetone and DMSO concentrations of the application solutions being compared were 8.1% and 0.25%, respectively
# (§6) All stock solutions and applications solutions were visually inspected for compound compatibility prior to application. Spray solutions were applied to the plant material with an overhead Mandel track sprayer equipped with 8002E nozzles calibrated to deliver 187 L/ha over an application area of 0.503 square meters (m^2) at a spray height of 18 to 20 inches (46 to 50 cm) above average plant canopy height. Control plants were sprayed in the same manner with the solvent blank.
# (§7) The treated plants and control plants were placed in a greenhouse as described above and watered by sub-irrigation to prevent wash-off of the test compounds. After approximately 3 weeks, the condition of the test plants as compared with that of the untreated plants was determined visually and scored on a scale of 0 to 100 percent where 0 corresponds to no injury or growth inhibition and 100 corresponds to complete kill.
# (§8) Colby's equation was used to determine the herbicidal effects expected from the mixtures (Colby, S. R. Calculation of the synergistic and antagonistic response of herbicide combinations. Weeds 1967, 15, 20-22.).
# (§9) The following equation was used to calculate the expected activity of mixtures containing two active ingredients, A and B: Expected=A+B−(A×B/100)
# [2] = tested on: BRAPP; assay: as above; format: in vivo; conditions: 22 DAA, r38-40 ester 8/16/32 g ae/ha alone, r41-42 azoxystrobin 125/250 g ai/ha alone, r43-48 ester 8/16/32 at each of 125, 250
# Text: (§10) Seeds or nutlets of the desired test plant species were planted in a soil matrix prepared by mixing aloam or sandy loam soil (e.g., 28.6 percent silt, 18.8 percent clay, and 52.6 percent sand, with a pH of about 5.8 and an organic matter content of about 1.8 percent) and calcareous grit in an 80 to 20 ratio. The soil matrix was contained in plastic pots with a volume of 1 quart and a surface area of 83.6 square centimeters (cm^2). When required to ensure good germination and healthy plants, a fungicide treatment and/or other chemical or physical treatment was applied. The plants were grown for 8-22 days in a greenhouse with an approximate 14 hour (h) photoperiod which was maintained at about 29° C. during the day and 26° C. during the night. Nutrients (Peters Excel® 15-5-15 5-Ca 2-Mg and iron chelate) were applied in the irrigation solution as needed and water was added on a regular basis. Supplemental lighting was provided with overhead metal halide 1000-Watt lamps as necessary. The plants were employed for testing when they reached the first through fourth true leaf stage.
# as §2
# (§11) Treatment requirements were calculated based upon the rates being tested, the concentration of active ingredient or acid equivalent in the formulation and a 12 milliliter (mL) application volume at a rate of 187 liters per hectare (L/ha).
# as §3, §4, §5, §6
# as §7, with “kill. […]” for “kill.”
# [3] = tested on: DIGSA; assay: as above; format: in vivo, Digitaria sanguinalis (L.) Scop. (large crabgrass); conditions: 21 DAA
# Text: as §10, §2, §11, §3, §4, §5, §6
# as §7, with “kill. […]” for “kill.”
# [4] = tested on: IPOHE; assay: as above; format: in vivo, Ipomoea hederacea (L.) Jacq. (ivyleaf morningglory)
# Method: as §1, §2, §3, §4, §5, §6, §7, §8, §9
# [5] = tested on: ECHCO; assay: as above; format: in vivo, Echinochloa colonum (L.) LINK (junglerice); conditions: 19 DAA, r9-11 ester 8/16/32 g ae/ha alone
# Text: as §10, §2, §11, §3, §4, §5, §6
# as §7, with “kill. […]” for “kill.”
# [6] = tested on: CYPRO; assay: In-water applied weed control, transplanted paddy rice (greenhouse); format: in vivo, Cyperus rotundus L. (purple nutsedge); conditions: 22 DAA
# Method: Weed seeds or nutlets of the desired test plant species were planted in puddled soil (mud) prepared by mixing a shredded, non-sterilized mineral soil (50.5 percent silt, 25.5 percent clay, and 24 percent sand, with a pH of about 7.6 and an organic matter content of about 2.9 percent) and water at a 1:1 volumetric ratio. The prepared mud was dispensed in 365 mL aliquots into 16-ounce (oz.) non-perforated plastic pots with a surface area of 86.59 square centimeters (cm^2) leaving a headspace of 3 centimeters (cm) in each pot. Rice seeds were planted in Sun Gro MetroMix® 306 planting mixture, which typically has a pH of 6.0 to 6.8 and an organic matter content of about 30 percent, in plastic plug trays. Seedlings at the second or third leaf stage of growth were transplanted into 860 mL of mud contained in 32-oz. non-perforated plastic pots with a surface area of 86.59 cm^2 4 days prior to herbicide application. The paddy was created by filling the headspace of the pots with 2.5 to 3 cm of water. When required to ensure good germination and healthy plants, a fungicide treatment and/or other chemical or physical treatment was applied. The plants were grown for 4-22 days in a greenhouse with an approximate 14 hour (h) photoperiod which was maintained at about 29° C. during the day and about 26° C. during the night. Nutrients were added as Osmocote® (17:6:10, N:P:K+minor nutrients) at 2 g per cup. Water was added on a regular basis to maintain the paddy flood, and supplemental lighting was provided with overhead metal halide 1000-Watt lamps as necessary. The plants were employed for testing when they reached the first through fourth true leaf stage.
# as §2, with “(compound A)” for “(Compound A),”, “concentrate)” for “concentrate),”
# Treatment requirements for each compound or fungicidal component were calculated based upon the rates being tested, the concentration of active ingredient or acid equivalent in the formulation, an application volume of 2 mL per component per pot, and an application area of 86.59 cm^2 per pot.
# For formulated compounds, a measured amount was placed in an individual 100 or 200 mL glass vial and was dissolved in a volume of 1.25% (v/v) Agri-Dex® crop oil concentrate to obtain application solutions.
# For technical grade compounds, a weighed amount was placed in an individual 100 to 200 mL glass vial and dissolved in a volume of acetone to obtain concentrated stock solutions.
# Applications were made by injecting with a pipetter appropriate amounts of the application solutions, individually and sequentially, into the aqueous layer of the paddy. Control plants were treated in the same manner with the solvent blank. Applications were made so that all treated plant material received the same concentrations of acetone and crop oil concentrate.
# as §7, with “water was added as needed” for “watered by sub-irrigation”, “maintain a paddy flood.” for “prevent wash-off of the test compounds.”, “weeks” for “weeks,”
# as §8, §9
# [7] = tested on: LEFCH; assay: Postemergence foliar-applied weed control, direct-seeded rice (greenhouse); format: in vivo, Leptochloa chinensis (L.) Nees (Chinese sprangletop)
# Method: as §1, §2, §3, §4, §5, §6, §7, §8, §9
# [8] = tested on: ECHCG; assay: as above; format: in vivo, Echinochloa crus-galli (L.) P. Beauv. (barnyardgrass); conditions: r10-11 ester 8/16 g ae/ha alone, r12-14 phthalide 100/200/300 g ai/ha alone, r15-20 ester 8/16 at each of 100, 200, 300
# Method: as §1, §2, §3, §4, §5, §6, §7, §8, §9
# [9] = r9-11 acid 5.3/10.6/21.2 g ae/ha alone, r12 azoxystrobin 250 g ai/ha alone, r13-15 acid 5.3/10.6/21.2 + 250
# [10] = r10-12 ester 4.38/8.75/17.5 g ae/ha alone, r13 azoxystrobin 250 g ai/ha alone, r14-16 ester 4.38/8.75/17.5 + 250
# [11] = r9-11 acid 5.3/10.6/21.2 g ae/ha alone, r12 myclobutanil 250 g ai/ha alone, r13-15 acid 5.3/10.6/21.2 + 250
molecule,measurement,setting,value
"CO/C=C(/C(=O)OC)c1ccccc1Oc1cc(Oc2ccccc2C#N)ncn1 [Azoxystrobin, methyl (2E)-2-{2-[6-(2-cyanophenoxy)pyrimidin-4-yloxy]phenyl}3-methoxyacrylate, reference compound]",Visual Weed Control (%) - 22 DAA CYPIR Obs,[1],0%
same,Visual Weed Control (%) - 22 DAA BRAPP Obs,[2],0%
same,Visual Weed Control (%) - 21 DAA DIGSA Obs,[3]; [9],0%
same,Visual Weed Control (%) - 21 DAA DIGSA Obs,[3]; [10],0%
same,Visual Weed Control (%) - 21 DAA IPOHE Obs,[4]; [9],0%
same,Visual Weed Control (%) - 21 DAA IPOHE Obs,[4]; [10],0%
"COC(=O)Nc1nc2ccccc2[nH]1 [Carbendazim, methyl benzimidazol-2-ylcarbamate, reference compound]",Visual Weed Control (%) - 19 DAA ECHCO Obs,"[5]; r12-13 carbendazim 125/250 g ai/ha alone, r14-19 ester 8/16/32 at each of 125, 250",0%
"COc1c(Cl)ccc(-c2nc(C(=O)O)c(Cl)c(N)c2F)c1F [Compound A Acid, 4-amino-3-chloro-5-fluoro-6-(4-chloro-2-fluoro-3-methoxy-phenyl)pyridine-2-carboxylic acid]",Visual Weed Control (%) - 22 DAA CYPRO Obs,[6]; Compound A Acid 10.6 g ae/ha,0%
same,Visual Weed Control (%) - 22 DAA CYPRO Obs,[6]; Compound A Acid 21.2 g ae/ha,25%
same,Visual Weed Control (%) - 22 DAA CYPRO Obs,[6]; Compound A Acid 42.4 g ae/ha,95%
"CC(C)Oc1cccc(NC(=O)c2ccccc2C(F)(F)F)c1 [Flutolanil, α,α,α-trifluoro-3′-isopropoxy-o-toluanilide, reference compound]",Visual Weed Control (%) - 19 DAA LEFCH Obs,"[7]; 19 DAA, r9-11 ester 8/16/32 g ae/ha alone, r12-13 flutolanil 280/560 g ai/ha alone, r14-19 ester 8/16/32 at each of 280, 560",0%
same,Visual Weed Control (%) - 19 DAA ECHCO Obs,"[5]; r12-13 flutolanil 280/560 g ai/ha alone, r14-19 ester 8/16/32 at each of 280, 560",0%
"CCCCC(C#N)(Cn1cncn1)c1ccc(Cl)cc1 (stereo not drawn) [Myclobutanil, 2-p-chlorophenyl-2-(1H-1,2,4-triazol-1-ylmethyl)hexanenitrile, reference compound]",Visual Weed Control (%) - 21 DAA LEFCH Obs,[7]; [11],0%
same,Visual Weed Control (%) - 21 DAA IPOHE Obs,[4]; [11],10%
"O=C1OCc2c(Cl)c(Cl)c(Cl)c(Cl)c21 [Phthalide, 4,5,6,7-tetrachlorophthalide]",Visual Weed Control (%) - 21 DAA ECHCG Obs,[8],0%
"CCCC1COC(Cn2cncn2)(c2ccc(Cl)cc2Cl)O1 (stereo not drawn) [Propiconazole, 1-[2-(2,4-dichlorophenyl)-4-propyl-1,3-dioxolan-2-ylmethyl]-1H-1,2,4-triazole, reference compound]",Visual Weed Control (%) - 21 DAA DIGSA Obs,"[3]; r9-11 acid 5.3/10.6/21.2 g ae/ha alone, r12 propiconazole 190 g ai/ha alone, r13-15 acid 5.3/10.6/21.2 + 190",0%
"manganese ethylenebis(dithiocarbamate) (polymeric) complex with zinc salt [Mancozeb, reference compound]",Visual Weed Control (%) - 21 DAA LEFCH Obs,"[7]; r10-11 ester 16/32 g ae/ha alone, r12 mancozeb 840 g ai/ha alone, r13-14 ester 16/32 + 840",0%
same,Visual Weed Control (%) - 21 DAA IPOHE Obs,"[4]; r20-22 ester 8/16/32 g ae/ha alone, r23 mancozeb 1680 g ai/ha alone, r24-26 ester 8/16/32 + 1680",0%
